Data published in PMC5073322, “Novel Natural Product-like Caged Xanthones Bearing a Carbamate Moiety Exhibit Antitumor Potency and Anti-Angiogenesis Activity In vivo” (Scientific Reports, 2016).

Key:
A549/cisplatin = experiment: MTT antiproliferative assay, cisplatin-resistant A549; type: cell-based; details: read-out: IC50 A549/cisplatin, MTT, 72 h
Procedure: (§1) The inhibition of tumour cell growth was measured by a modified tetrazolium (MTT) salt assay, as previously described[39]. Cells were cultured in a 96-well plate and treated with culture medium alone or different concentrations of the compounds. The cells were incubated for 72 h, and then, the MTT assay reagent was added. After a 4 h incubation, the formazan product was quantitated at 570 nm. The IC50 values (the concentrations that gave rise to 50% inhibition of cell viability) were calculated using GraphPad Prism 6 using a variable slope (four parameters).

HUVECs = experiment: Transwell invasion assay; type: cell-based, human; details: 0.25 μM
Procedure: GA was reported to inhibit tumour angiogenesis and may be a viable drug candidate for anti-angiogenesis and anticancer therapies. Therefore, the anti-angiogenesis activity of the caged xanthone derivative 8n was evaluated. Human umbilical vein endothelial cells (HUVECs) were used in all experiments. Cell migration is critical for endothelial cells to form blood vessels during angiogenesis, tumour growth and metastasis. […] Endothelial cell invasion is a critical part of angiogenesis; therefore, a transwell assay was performed to evaluate the ability of inactivated HUVECs to pass through the transwell membrane barrier in the presence of 8n.
Figure 8 8n had anti-angiogenesis activity in vitro and in vivo. (A) A wound-healing assay was used to evaluate the motility of HUVECs after treatment with 8n for 24 h. (B) Changes in cell motility were evaluated using a transwell assay of cell migration and invasion. (C) The effect of 8n on tube formation by HUVECs. HUVECs were incubated with 8n for 6 h and then transferred to Matrigel for 6 h. (D) Zebrafish embryos treated with blank control or 1, 10, or 50 μg/ml of 8n.
A transwell migration assay was performed as previously described with minor modifications. HUVECs (4×10^4 cells per well) with compound 8n were seeded in the top of transwells (Corning Incorporated) and allowed to migrate for 4 h at 37 °C, 5% CO2 and 1% O2. […]

[1] = tested on: zebrafish embryos (intersegmental vessels); experiment: In vivo fluorescent zebrafish angiogenesis assay; details: 24 h
Procedure: Zebrafish has been proposed as a valid alternative animal model for investigating angiogenesis. The effect of 8n on embryonic angiogenesis in zebrafish was evaluated.
Transgenic zebrafish (VEGFR2: GFP) embryos were supplied using the drug screening platform of the Shandong Academy of Sciences Institute; they were grown and maintained according to the same protocols. The screen was carried out in 24-well plates. Compounds were prepared initially as a 10 mg/mL stock solution in dimethyl sulfoxide (DMSO). The stock solution was diluted to the relevant assay concentration with fish water, and 0.5% DMSO served as a vehicle control. The embryos were distributed in 24-well plates, with 10 embryos placed in each well. Then, a diluted solution of each compound was added. The embryos were exposed to the compound solution and incubated at 28.5 °C. After 24 h, the zebrafish were anesthetized with 0.01% tricaine and imaged under a fluorescence microscope (Olympus, Inc.) equipped with a SZX16 microscope and a DP2-BSW digital camera (Olympus, Inc.). The animal experiments were performed in accordance with the approval of the Chinese Academy of Medical Sciences and the Biology Institute of Shandong Academy of Sciences. All studies were performed in accordance with the approved guidelines from the China Zebrafish Resource Center with the approved protocol number of 2012CB944504.

[2] = tested on: Hsp90 client proteins in HepG2 cells; experiment: Western blot of Hsp90 client proteins; type: cell-based, human; details: HepG2, 24 h
Procedure: Figure 9 (A) The caged compounds (50 μM) inhibited the Hsp90 ATPase activity in a HTRF-based inhibition assay. (B) The IC50 values for the inhibition of Hsp90 ATPase by 8n, 8o and GA as detected by the HTRF Transcreener ADP kit. The test compounds were diluted to obtain a range of concentrations and incubated with Hsp90 and ATP. The amount of ADP generated was detected. (C) Western blots of the Hsp90 client proteins after HepG2 cells were treated with the indicated concentrations of 8n for 24 h. (D) The mRNA expression of VEGF was determined by real-time quantitative reverse-transcriptase polymerase chain reaction (RT-PCR) and analysed by the delta Ct method. The bars represent the means with standard error of the mean (SEM) and the fold change in the VEGF/GAPDH ratio relative to the vehicle-treated group. The different significance levels are indicated as **P < 0.05.
The influence of 8n on the degradation of Hsp90 client proteins was monitored by WB analysis. HepG2 cells were treated with different concentrations of 8n for 24 h. […] HIF-1α, as a key modulator of angiogenesis and an important client protein of Hsp90, was also examined, and the expression of HIF-1α decreased after treatment with 8n.
The cells were washed with PBS and lysed with ice-cold lysis buffer supplemented with protease inhibitors (Roche) for 30 min. The protein content of the supernatants of lysates was determined using a bicinchoninic acid assay. Equal 50 μg total protein samples were separated by sodium dodecyl sulphate polyacrylamide gel electrophoresis (SDS−PAGE) and then transferred onto PVDF membranes (Millipore) at 90 volts for 90 mins. After blocking the membrane with 5% skim milk for 1 h at RT, the membranes were incubated with the primary antibody overnight at 4 °C. Then, the membranes were incubated with a DyLight 800-labeled secondary antibody in the dark for 1 h. Detection of specific proteins was performed with the Odyssey infrared imaging system (LI-COR, Lincoln, Nebraska, USA).

A549 = experiment: MTT antiproliferative assay, A549; details: read-out: IC50 A549; MTT, 72 h
MDA-MB-231 = experiment: MTT antiproliferative assay, MDA-MB-231; details: read-out: IC50 MDA-MB-231; MTT, 72 h
Procedure: as §1

## CC(C)=CCC12OC(C)(C)C3CC(C=C4C(=O)c5c(OC(=O)N6CCC(N7CCCCC7)CC6)cccc5OC431)C2=O (stereo not drawn) [Compound 8n]
A549/cisplatin
  IC50: 1.1 ± 0.17 µM
HUVECs
  invasion of inactivated HUVECs: almost completely inhibited
[1]; 10 μg/ml or 5 μg/ml
  formation of intersegmental vessels: considerably inhibited
[1]; 50 μg/ml
  formation of intersegmental vessels: completely blocked
[2]
  expression levels of client proteins HER-2, Akt and Erk1/2: dramatically reduced
  expression of HIF-1α: decreased
  expression of Hsp70: changed little
A549
  IC50: 7.23 ± 0.56 µM
MDA-MB-231
  IC50: 1.2 ± 0.07 µM
